Experiments:
[1] = system: HeLa cell (pGL3 transfected); details: pGL3 transfected to HeLa cell, measured with time
Protocol: Specifically, in the experiments conducted by the present inventor, pGL3 was transfected to HeLa cell and, by making use of FCCP acting as an uncoupler, the production of ATP in mitochondria was suspended and then the luminescence intensity on this occasion was measured with time by making use of LUMINOVIEW (LV100) (trade name).

cytoplasmic ATP = details: 30 minutes after treatment with FCCP; cited from earlier work

**Q.** With `N#CC(C#N)=NNc1ccc(OC(F)(F)F)cc1` [FCCP, carbonyl cyanide p-(trifluoromethoxy) phenylhydrazone] as the compound, how does the “luminescence intensity after FCCP” value [1] read?
**A.** Its value is “not attenuated”.

**Q.** And the “concentration of cytoplasmic ATP relative to steady state” value (cytoplasmic ATP)?
**A.** Its value is “about 50 % of that of steady state”.

From patent US8163661B2, “Luminescence measurement system” (Olympus Corporation, priority 2007, dated 2012)
